Reference: patent US8501809B2, “Inhibitors of α4 mediated cell adhesion” (Mitsubishi Tanabe Pharma Corporation, priority 2000, dated 2013)

melting point [°C]	SMILES
183 to 186	CCCOCc1cc(OC)c(-c2ccc(C[C@H](NC(=O)c3c(Cl)cccc3Cl)C(=O)O)cc2)c(OC)c1 [Example 7, N-(2,6-Dichlorobenzoyl)-4-(2,6-dimethoxy-4-n-propoxymethylphenyl)-L-phenylalanine]
91 to 94	CCOCc1cc(OC)c(-c2ccc(C[C@H](NC(=O)c3c(Cl)cccc3Cl)C(=O)OCC)cc2)c(OC)c1 [Example 1, N-(2,6-Dichlorobenzoyl)-4-(2,6-dimethoxy-4-ethoxymethylphenyl)-L-phenylalanine ethyl ester]
170 to 175	COCc1cc(OC)c(-c2ccc(C[C@H](NC(=O)c3c(F)cccc3Cl)C(=O)O)cc2)c(OC)c1 [Example 23, N-(2-Chloro-6-fluorobenzoyl)-4-(2,6-dimethoxy-4-methoxymethylphenyl)-L-phenylalanine]
87 to 89	CCOCc1cc(OC)c(-c2ccc(C[C@H](NC(=O)c3c(F)cccc3F)C(=O)OCC)cc2)c(OC)c1 [Example 10, N-(2,6-Difluorobenzoyl)-4-(2,6-dimethoxy-4-ethoxymethylphenyl)-L-phenylalanine ethyl ester]
182 to 184	CCOCc1cc(OC)c(-c2ccc(C[C@H](NC(=O)c3c(F)cccc3Cl)C(=O)O)cc2)c(OC)c1 [Example 20, N-(2-Chloro-6-fluorobenzoyl)-4-(2,6-dimethoxy-4-ethoxymethylphenyl)-L-phenylalanine]
63 to 70	CCOCCc1cc(OC)c(-c2ccc(C[C@H](NC(=O)c3c(F)cccc3F)C(=O)O)cc2)c(OC)c1 [Example 31, N-(2,6-Difluorobenzoyl)-4-[2,6-dimethoxy-4-(2-ethoxyethyl)phenyl]-L-phenylalanine]
196 to 198	CCOCc1cc(OC)c(-c2ccc(C[C@H](NC(=O)c3c(Cl)cccc3Cl)C(=O)O)cc2)c(OC)c1 [Example 3, N-(2,6-Dichlorobenzoyl)-4-(2,6-dimethoxy-4-ethoxymethylphenyl)-L-phenylalanine]
232 to 235	COCc1cc(OC)c(-c2ccc(C[C@H](NC(=O)c3c(Cl)cccc3Cl)C(=O)O)cc2)c(OC)c1 [Example 5, N-(2,6-Dichlorobenzoyl)-4-(2,6-dimethoxy-4-methoxymethylphenyl)-L-phenylalanine]
